{"source": "patent US11913032B2", "about": "“Compositions of and methods for in vitro viral genome engineering” (C3J Therapeutics, Inc., priority 2014, dated 2024)", "system": "P. aeruginosa biofilm", "test": "Crystal violet biofilm assay, early (8 h preformed) biofilm disruption", "format": "cell-based", "details": "biofilm preformed for 8 hours, compared with wild type LUZ19", "experimental": "To validate that a Gp34 L55Δ mutation had improved viral properties, the LUZ19 viral genome was isolated from viral particles. Site-specific digestion was performed using an RNA-dependent nuclease and in vitro transcribed gRNAs to remove the gp34 gene (SEQ ID NO:4). The gp34 L55Δ gene, which harbors a deletion of leucine codon at amino acid position 55 (Gp34 L55Δ, position 163-165 of SEQ ID NO:4) was PCR amplified from a LUZ19 evolved phage. The Gibson Assembly method was used to integrate the PCR amplified gp34 L55Δ gene seamlessly into the digested LUZ19 genome. The in vitro transformed genomes were transformed directly into host cells to yield functional viral particles. The engineered LUZ19 virus harboring Gp34 L55Δ was able to diffuse and lyse bacteria. […] Images were taken and zones of clearing were measured over a two-day period (FIG. 5B). […] Crystal violet biofilm assay measures biofilm accumulation as a measure of the incorporation of crystal violet (FIG. 5C). […]\nThe LUZ19*LKD16gp18 virus was analyzed for improved viral properties, using double agar plaque, biofilm, and an in vitro human keratinocyte attachment assays. […] Specifically, LUZ19*LKD16gp18 and wild type LUZ19 were incubated with a P. aeruginosa biofilm and disruption was measured using crystal violet. […] The LUZ19*LKD16gp18 virus was analyzed for efficacy of phage treatment against bacteria attached to human keratinocytes. […]"}
{"substance": "Gentamicin", "values": [{"measurement": "early biofilm disruption", "result": "completely remove biofilm"}]}
